According to US20160074380A1, “Treatment Of Neurodegenerative Diseases With Combination Of Laquinimod And Fingolimod” (TEVA PHARMACEUTICAL INDUSTRIES LTD., priority 2014, published 2016):

Key:
[1] = tested on: mouse-cultured cortical cells; settings: pretreatment; Di Menna, 2013; cited from earlier work
human astrocytes = assay: Human astrocyte activation and cytokine secretion in vitro; format: cell-based
Source text: The effect of laquinimod on human astrocyte activation, as investigated in another study, is detailed in FIGS. 9 and 10. […] In unstimulated cells, the NF-κB dimers are sequestered in the cytoplasm by a family of inhibitors, called IκBs (Inhibitor of κB). […] Activation of the NF-κB is initiated by the signal-induced degradation of IκB proteins. This occurs primarily via activation of a kinase called the IκB kinase (IKK). When activated by signals, usually coming from the outside of the cell, the IκB kinase phosphorylates two serine residues located in an IκB regulatory domain. When phosphorylated, the IκB inhibitor molecules are modified by a process called ubiquitination, which than leads them to be degraded by a cell structure called the proteasome. With the degradation of IκB, the NF-κB complex is then freed to enter the nucleus where it can ‘turn on’ the expression of specific genes that have DNA-binding sites for NF-κB nearby. The activation of these genes by NF-κB then leads to the given physiological response, for example, an inflammatory or immune response.

cuprizone model = assay: Demyelination and re-myelination in the cuprizone model; format: in vivo

Compound	protection of neurons against NMDA toxicity [1]	pro-inflammatory cytokine secretion (human astrocytes; human astrocytes in vitro)	astrocyte activation (human astrocytes; via the NF-κB pathway)	re-myelination (cuprizone model; after cuprizone withdrawal)	demyelination (cuprizone model; cuprizone model (non-T cell model of demyelination))
CCCCCCCCc1ccc(CCC(N)(CO)CO)cc1 [Fingolimod]	protected neurons against NMDA toxicity				
CCN(C(=O)c1c(O)c2c(Cl)cccc2n(C)c1=O)c1ccccc1 [Laquinimod]		down regulates	interferes with astrocyte activation	no effect	significantly less demyelination
